Source: patent US7115666B2, “Nitrone compounds, pharmaceutical compositions containing the same and methods for treating inflammation and neuropathic pain” (Renovis, Inc., priority 2002, dated 2006)
“Also recorded” adds a separate entry of the source.

Assays:
[1] = tested on: spinal nerve ligation model (Chung model); assay: Spinal nerve ligation (Chung) model, mechanical allodynia; assay type: in vivo, rats; conditions: 25 mg/kg single dosing via i.p.; von Frey filaments
Protocol: Compound 14 and Compound 23 were prepared for i.p. administration as follows. 250 mg/ml of each of the compounds to be tested, was dissolved in a mixture of Cremophor EL/alcohol (90:10) (volume:volume), respectively, by brief sonication on ice, followed by further 10-fold dilution in saline solution (9% Cremophor EL; 1% ETOH and 90% saline) to give a final concentration of 25 mg/ml. before injection. 1 ml/kg (body weight) of compound solution was administered via i.p. to rats, to yield a dose of 25 mg/kg. 180–200 grams of body weight, male, Sprague-Dawley rats from Harlan were used. They were housed under the standard housing conditions and trained for 1 week before measurement of the baseline. The rats were prepared in the manner described in Example V, above, by i.p. admininstration of Taxol. The spinal nerve ligation surgery was performed as described by Kim & Chung (Kim, S. O., and Chung, J. M., An experimental model for peripheral neuropathy produced by segmental spinal nerve ligation in rat. Pain. 1992; 50:355–363.). The development of neuropathic pain was measured using 50% of threshold measurement using von Frey filaments. […] Generally speaking, the mechanical allodynia in spinal nerve ligation model rats fell in the range of 1–4 grams of the paw withdrawal threshold. The results of the tests are set forth in FIG. 8 and are summarized in the last two rows of Table III.

[2] = tested on: Taxol-induced neuropathic pain model in mice; assay: Taxol-induced neuropathic pain model, mechanical allodynia (von Frey filament); assay type: in vivo
Source text: Taxol is a chemotherapeutic reagent for treatment of cancer patients. Cancer patients under Taxol chemotherapy can develop neuropathic pain, with a symptom of severe mechanical allodynia, so that a light touch (non-noxious stimulus in a normal condition) becomes painful. […] Recent studies have shown that Taxol is involved in TNF-alpha release in microglia cells. As one of the clinically relevant models, Taxol-induced neuropathic pain was developed in mice and rats. It is believed that small-diameter high threshold nociceptive C-fibers in the peripheral sensory nervous systems are largely, if not exclusively, affected in the Taxol-induced neuropathic pain models.
In this series of experiments, five-week old, male C57B1/6 mice were purchased from Charles River and housed at the Renovis animal facility in South San Francisco. Mice were trained for one week in an enclosure made of Plexiglas with dimensions of 2 in×2.5 in×3.5 in (W, H, and L) with a meshed metal support. The baseline of response to mechanical stimulus was measured using a von Frey Filament (0.6 g=3.84 mN). Normally, the baseline response is between 0 to 40%.
Taxol was dissolved (1 mg/ml) in 50% Cremophor EL and 50% alcohol, and freshly diluted with saline to the final concentration of 0.2 mg/ml in 10% Cremophor EL, 10% alcohol. Mice were administered Taxol at 1 mg/kg of body weight, via i.p. daily, while the animals of the control group received vehicle (10% Cremophor EL and 10% alcohol in saline).
Animals receiving this daily dose of Taxol will develop neuropathic pain. The mechanical allodynia was measured at day 7, 8, or 14 after Taxol administration.
A quantity of 200 mg of compound 14 (Example 14) was dissolved in 0.4 ml of 100% DMSO to yield a concentration of 500 mg/ml, and was kept at 4° C. until use. Methylcellulose was dissolved in deionized-distilled water to yield a concentration of 1%. The freshly prepared meythlcellulose was used to make a suspension of the compound, 10 mg of compound in 2.5% DMSO (V/V) and 1% methylcellulose. The suspension was sonicated for 6 min with a 5 second interval every 30 seconds before administration to animals.
A quantity of 50 mg/kg (body weight) compound or vehicle (2.5% DMSO and 1% methylcellulose), 100 μl/20 g (body weight) was given to animals via gavage feeding procedure in a randomized, blinded fashion. The animals were then placed in the enclosure for assay. Mechanical allodynia was measured with von Frey filament (0.6 g=[…]) at various times after administration.
Referring to FIG. 5, baseline in the group of animals was measured as 25+/−4% (n=24, ±SEM) before induction of neuropathic pain with Taxol (or sham treatment), where the response was measured with a von Frey filament (0.6 g=3.84 mN) as the percent of trials a withdrawal response is observed after probing with the filament. The higher the percentage, the greater the inferred pain.
Sixteen animals were treated with Taxol daily to induce neuropathic pain. Mechanical allodynia was assayed at day 8; average withdrawal response was measured as 81±5% (n=16, ±SEM). Sixteen animals were treated with matching vehicle to create sham animals. The Taxol and sham animals were then separated randomly into two groups of 8 animals each for drug vs. vehicle testing. Withdrawal responses to a von Frey filament probe were measured at 1, 6, 24, and 72 hours post-administration of drug or vehicle control, and averaged for each animal. […] Negative values reflect a reduction in inferred pain.
For mouse neuropathic pain studies, C57B1/6 strain, five-weeks old male mice were obtained from Charles River, San Diego, Calif. A total of 120 mice were used for the studies. 4 mice per cage were housed under standard conditions with 12-hour light and 12-hour dark cycles (in Renovis, Inc, South San Francisco facility). For rat neuropathic pain studies, male Sprague-Dawley rats, with body weights ranging from 180–200 grams, were obtained from Harlan. A total of 42 rats were used for this study. […]

[3] = Taxol/mice, P.O., Single dosing, 50 Mg/Kg body weight

Row | Molecule | effect on mechanical allodynia (paw withdrawal threshold) [1] | time postdosing of analgesic effect ([2]; 50 mg/kg single dose via oral gavage) | effect on mechanical allodynia (Taxol-induced pain) ([2]; 50 mg/kg single dose via oral gavage, von Frey filament 0.6 g, measured 1, 6, 24, up to 48 or 72 hours postdosing) | Effective time Hour post dosing [2, 3] | extent of block of mechanical allodynia [2, 3]
1 | COc1ccc(CCCC=[N+]([O-])C(C)(C)C)cc1 [Compound 23] | significant analgesic effects over control; also recorded: attenuate mechanical allodynia |  |  |  | 
2 | N-tert-butyl-C-(4-phenylpropyl)nitrone [Compound 14] | significant analgesic effects over control; also recorded: attenuate mechanical allodynia | up to 24 hour | inhibits mechanical allodynia; also recorded: significant reduction of mechanical allodynia; also recorded: activity preventing Taxol-induced pain | ~24 h | block
